Data set [1] relates to Plasmodium falciparum. The experiment in a line: Antimalarial activity against chloroquine-resistant Plasmodium falciparum W2 infected in red blood cells after 72 hrs by SYBR green 1 staining based fluorometric assay. The data set is classed as functional, cell-based. To be noted: W2, 72 h.
A short description of data set [2]: Resistance index, ratio of IC50 for chloroquine-resistant Plasmodium falciparum W2 infected in red blood cells to IC50 for chloroquine-sensitive Plasmodium falciparum 3D7 infected in red blood cells. The class given is functional.
Data set [3] in a line: Cytotoxicity against HUVEC assessed as decrease in cell viability at 0.01 to 50 umol/l after 24 hrs by trypan blue dye based assay. The class given is toxicity. The settings on record: human.
For data set [4], the system named is Plasmodium falciparum. Nature of the data set: Antimalarial activity against chloroquine-sensitive Plasmodium falciparum 3D7 infected in red blood cells after 72 hrs by SYBR green 1 staining based fluorometric assay. The class given is functional, cell-based. The settings on record: 3D7, 72 h.
Data set [5] is described as follows: Stability of the compound in pH 7.4 solution up to 48 hrs. The data set is classed as physicochemical. To be noted: buffer, pH 7.4, 48 h.

As a reminder, the IC50 is the point on the concentration scale where inhibition reaches its midpoint. On to `O=C1C=C(OCc2ccccc2)C(O)(Cc2ccc(C(F)(F)F)cc2)N1CCCNc1ccnc2cc(Cl)ccc12` (stereo not given), for which the IC50 in the data set on Plasmodium falciparum [1] and in the data set on Plasmodium falciparum [4] was 36 nM throughout. In data set [2], the “Ratio IC50” value stood at 1. In addition, the Activity result in data set [3] is “Non-Toxic”. Moreover, in data set [5], the Stability entry is given as “Stable”.
Regarding `COC1=CC(=O)N(CCCNc2ccnc3cc(Cl)ccc23)C1(O)Cc1ccc(C(C)(C)C)cc1` (stereo not given), the IC50 worked out at 214 nM in the data set with Plasmodium falciparum [1] and 91 nM with Plasmodium falciparum [4]. Besides, the “Ratio IC50” value in data set [2] turned out to be 2.3.
For `COC1=CC(=O)N(CCCNc2ccnc3cc(Cl)ccc23)C1(O)Cc1ccc(OC)c(OC)c1` (stereo not given), in that order: 760 nM, 511 nM and 1.5.
For `COC1=CC(=O)N(CCN2CCN(CCNc3ccnc4cc(Cl)ccc34)CC2)C1(O)Cc1ccc(C(F)(F)F)cc1` (stereo not given), the IC50 in the data set on Plasmodium falciparum [1] is 16 nM; in the data set with Plasmodium falciparum [4], 19 nM. Besides, the “Ratio IC50” value in data set [2] turned out to be 0.8. In data set [3], the Activity entry is recorded as “Non-Toxic”. Further, the Stability result in data set [5] is given as “Stable”.
The corresponding values for `CN(CCNc1ccnc2cc(Cl)ccc12)CCN1C(=O)C=C(OCc2ccccc2)C1(O)Cc1ccc(C(F)(F)F)cc1` (stereo not given) are 42 nM, 40 nM, 1, “Non-Toxic” and “Stable”.
For `O=C1C=C(OCc2ccccc2)C(O)(Cc2ccc(F)cc2)N1CCCNc1ccnc2cc(Cl)ccc12` (stereo not given), in that order: 58 nM, 42 nM, 1.4, “Non-Toxic” and “Stable”.
Take `O=C1C=C(OCc2ccccc2)C(O)(Cc2ccccc2)N1CCCNc1ccnc2cc(Cl)ccc12` (stereo not given): the values for the IC50 with Plasmodium falciparum [1] and in the data set with Plasmodium falciparum [4] were 191 nM and 143 nM, respectively. Moreover, the “Ratio IC50” value in data set [2] worked out at 1.3.
For `COC1=CC(=O)N(CCCNc2ccnc3cc(Cl)ccc23)C1(O)Cc1ccccc1` (stereo not given), the figures for the IC50 in the data set on Plasmodium falciparum [1] and with Plasmodium falciparum [4] were 827 nM and 300 nM, respectively. The “Ratio IC50” value in data set [2] is 2.8.
For `COC1=CC(=O)N(CCN(C)CCNc2ccnc3cc(Cl)ccc23)C1(O)Cc1ccc(C(F)(F)F)cc1` (stereo not given), the values for the IC50 in the data set on Plasmodium falciparum [1] and in the data set on Plasmodium falciparum [4] were 34 nM and 14 nM, respectively. Further, the “Ratio IC50” value in data set [2] was found to be 2.4. For the same compound, in data set [3], the Activity entry is on record as “Non-Toxic”. Also, the Stability entry in data set [5] is “Stable”.
With `CN(CCNc1ccnc2cc(Cl)ccc12)CCN1C(=O)C=C(OCc2ccccc2)C1(O)Cc1ccccc1` (stereo not given), the IC50 with Plasmodium falciparum [1] came to 64 nM; in the data set with Plasmodium falciparum [4] it was 54 nM. The “Ratio IC50” value in data set [2] was 1.2. In addition, in data set [3], the Activity result was “Non-Toxic”. In data set [5], the Stability result was “Stable”.
`COC1=CC(=O)N(CCCNc2ccnc3cc(Cl)ccc23)C1(O)Cc1ccc(F)cc1` (stereo not given): the IC50 in the data set with Plasmodium falciparum [1] is 670 nM; with Plasmodium falciparum [4], 191 nM. Further, in data set [2], the “Ratio IC50” value was 3.5.

The record behind these values is ChEMBL document CHEMBL3862008, “7-Chloro-4-aminoquinoline γ-hydroxy-γ-lactam derived-tetramates as a new family of antimalarial compounds” (Bioorg Med Chem Lett, 2016).
